# Patent publication EP0187355A1, “Process for preparing beta-lactam antibiotics” (E.R. Squibb & Sons, Inc., priority 1981, dated 1982)
# Counter-ions that a name gives are not always drawn. Like-named read-outs stand apart in the source and are kept apart here.
# Columns and labels:
# Experiment in all cases: MIC, agar dilution
# Assay type in all cases: cell-based
# [1] = test system: Acinetobacter calcoaceticus, 8333; details: Acinetobacter calcoaceticus, 8333, 18 h, K-10 agar, 10^4 CFU, 37°C
# Protocol: (§1) The following methodology is used to determine the minimum inhibitory concentration (hereinafter referred to as MIC) of the […] of this invention.
# (§2) The test organisms are grown in approximately 15-20 ml of Antibiotic Assay broth (Difco) by inoculating (in tubes) the broth with a loopful of the organism from a BHI (Difco) agar slant. The inoculated tubes are incubated at 37°C for 18 to 20 hours. These cultures are assumed to contain 10^9 colony forming units (hereinafter CFU) per milliliter. The cultures are diluted 1:100 to give a final inoculum level of 10^4 CFU; dilutions are made with K-10 broth^*.
# (§3) The compounds are dissolved in the appropriate diluent at a concentration of 1000 µg/ml. Twofold dilutions are made in K-10 broth resulting in a range from 1000 µg/ml to 0.5 µg/ml. 1.5 ml of each dilution is placed into individual square petri dishes to which 13.5 ml of K-10 agar^** is added. The final drug concentration in the agar ranges from 100 µg/ml to 0.05 µg/ml. Organism growth control plates containing agar only are prepared and inoculated before and after the test plates. The organisms are applied to the agar surface of each plate with the Denley Multipoint Inoculator (which delivers approximately 0.001 ml of each organism) resulting in a final inoculum level of 10^4 CFU on the agar surface.
# (§4) The plates are incubated at 37 °C for 18 hours and the MIC's are determined. The MIC is the lowest concentration of compound inhibiting growth of the organism.
# (§5) The tables that follow are tabulated results obtained when the B-lactams of this invention are tested against various organisms. The number following each organism refers to the number of the organism in the collection of E. R. Squibb & Sons,.Inc., Princeton, New Jersey. […] The symbol "N.T." means not tested.
# [2] = test system: Citrobacter freundii, 9518; details: K-10 agar, 10^4 CFU, 37°C
# Protocol: as §1, §2, §3, §4, §5
# [3] = test system: Enterobacter aerogenes, 10078; details: Klebsiella aerogenes, 10078, 18 h
# Protocol: as §1, §2, §3, §4, §5
# Escherichia coli, 10857 = details: Escherichia coli, 10857, 18 h, K-10 agar, 10^4 CFU, 37°C
# Protocol: as §1, §2, §3, §4, §5
# Escherichia coli, 10896 = details: K-10 agar, 10^4 CFU, 37°C, 18 hours
# Protocol: as §1, §2, §3, §4, §5
# Escherichia coli, 10909 = details: K-10 agar, 10^4 CFU, 37°C, 18 hours
# Protocol: as §1, §2, §3, §4, §5
# Escherichia coli, 8294 = details: Escherichia coli, 8294, 18 h, K-10 agar, 10^4 CFU, 37°C
# Protocol: as §1, §2, §3, §4, §5
# [4] = test system: Klebsiella aerogenes, 10440; details: K-10 agar, 10^4 CFU, 37°C
# Protocol: as §1, §2, §3, §4, §5
# [5] = test system: Klebsiella pneumoniae, 9527; details: Klebsiella pneumoniae, 9527, 18 h, K-10 agar, 10^4 CFU, 37°C
# Protocol: as §1, §2, §3, §4, §5
# Proteus mirabilis, 3855 = details: Proteus mirabilis, 3855, 18 h, K-10 agar, 10^4 CFU, 37°C
# Protocol: as §1, §2, §3, §4, §5
# Proteus rettgeri, 8479 = details: K-10 agar, 10^4 CFU, 37°C
# Protocol: as §1, §2, §3, §4, §5
# Proteus vulgaris, 9416 = details: K-10 agar, 10^4 CFU, 37°C
# Protocol: as §1, §2, §3, §4, §5
# [6] = test system: Pseudomonas aeruginosa, 8329; details: K-10 agar, 10^4 CFU, 37°C
# Protocol: as §1, §2, §3, §4, §5
# [7] = test system: Pseudomonas aeruginosa, 9545; details: Pseudomonas aeruginosa, 9545, 18 h, K-10 agar, 10^4 CFU, 37°C
# Protocol: as §1, §2, §3, §4, §5
# Salmonella typhosa, 1195 = details: Salmonella enterica, TYPHOSA, 18 h, K-10 agar, 10^4 CFU, 37°C
# Protocol: as §1, §2, §3, §4, §5
# [8] = test system: Serratia marcescens, 9783; details: Serratia marcescens, 9783, 18 h, K-10 agar, 10^4 CFU, 37°C
# Protocol: as §1, §2, §3, §4, §5
# Shigella sonnei, 8449 = details: Shigella sonnei, 8449, 18 h, K-10 agar, 10^4 CFU, 37°C
# Protocol: as §1, §2, §3, §4, §5
# [9] = test system: Staphylococcus aureus, 10165
# Protocol: as §1, §2, §3, §4, §5
# [10] = test system: Staphylococcus aureus, 1276
# Protocol: as §1, §2, §3, §4, §5
# [11] = test system: Staphylococcus aureus, 2399; details: Staphylococcus aureus, 2399, 18 h
# Protocol: as §1, §2, §3, §4, §5
# [12] = test system: Staphylococcus aureus, 2400
# Protocol: as §1, §2, §3, §4, §5
# [13] = test system: Streptococcus faecalis, 9011
# Protocol: as §1, §2, §3, §4, §5
# [14] = test system: Streptococcus agalactiae, 9287; details: Streptococcus agalactiae, 9287, 18 h, K-10 agar, 10^4 CFU, 37°C
# Protocol: as §1, §2, §3
# (§6) The MIC is the lowest concentration of compound inhibiting growth of the organism.
# (§7) The number following each organism refers to the number of the organism in the collection of E. R. Squibb & Sons,.Inc., Princeton, New Jersey. […] The symbol "N.T." means not tested.
# [15] = test system: Enterobacter cloacae, 8236; details: Enterobacter cloacae, 8236, 18 h, K-10 agar, 10^4 CFU, 37°C
# Protocol: as §1, §2, §3, §6, §7
# Micrococcus luteus, 2495 = details: Micrococcus luteus, 2495, 18 h, K-10 agar, 10^4 CFU, 37°C, read-out: M.I.C.
# Protocol: as §1, §2, §3, §6, §7
smiles,measurement,setting,value
"CC1C(NC(=O)C(=NOC(C)(C)C(=O)O)c2csc(N)n2)C(=O)N1S(=O)(=O)O (stereo not drawn) [Example 6, [3S-[3α (Z) ,4β]]3-[[(2-Amino-4-thiazolyl) [[1-carboxy-1-methylethoxy)imino]acetyl)amino)-4-methyl-2-oxo-1-azetidinesulfonic acid, dipotassium salt]",MIC,[1],100 µg/mL
same,MIC,"[2]; Citrobacter freundii, 9518, 18 h",0.4 µg/mL
same,MIC,[3],0.4 µg/mL
same,MIC,"Escherichia coli, 10857",< 0.05 µg/mL
same,MIC,"Escherichia coli, 10896",0.2 µg/mL
same,MIC,"Escherichia coli, 10909",< 0.05 µg/mL
same,MIC,"Escherichia coli, 8294",0.4 µg/mL
same,MIC,"[4]; Klebsiella aerogenes, 10440, 18 h",0.4 µg/mL
same,MIC,[5],< 0.05 µg/mL
same,MIC,"Proteus mirabilis, 3855",< 0.05 µg/mL
same,MIC,"Proteus rettgeri, 8479; Providencia rettgeri, 8479, 18 h",< 0.05 µg/mL
same,MIC,"Proteus vulgaris, 9416; Proteus vulgaris, 9416, 18 h",< 0.05 µg/mL
same,MIC,"[6]; Pseudomonas aeruginosa, 8329, 18 h",3.1 µg/mL
same,MIC,[7],0.8 µg/mL
same,MIC,"Salmonella typhosa, 1195",< 0.05 µg/mL
same,MIC,[8],0.2 µg/mL
same,MIC,"Shigella sonnei, 8449",0.2 µg/mL
same,MIC,"[9]; Staphylococcus aureus, 10165, 18 h",> 100 µg/mL
same,MIC,"[10]; Staphylococcus aureus, 1276, 18 h",> 100 µg/mL
same,MIC,[11],> 100 µg/mL
same,MIC,"[12]; Staphylococcus aureus, 2400, 18 h",> 100 µg/mL
same,MIC,"[13]; Enterococcus faecalis, 9011, 18 h",> 100 µg/mL
same,MIC,[14],50 µg/mL
"CC1C(NC(=O)C(=NO)c2csc(N)n2)C(=O)N1S(=O)(=O)O (stereo not drawn) [Example 13, [3S-[3α(Z),4β]]-3-[[(2-amino-4-thiazolyl)-(hydroxyimino)acetyl]amino]-4-methyl-2-oxo-1-azetidinesulfonic acid, potassium salt]",MIC,[1]; read-out: M.I.C.,12.5 µg/mL
same,MIC,"[2]; 18 hours, read-out: M.I.C.",0.8 µg/mL
same,MIC,"[3]; Enterobacter aerogenes, 10078, K-10 agar, 10^4 CFU, 37°C, 18 hours, read-out: M.I.C.",3.1 µg/mL
same,MIC,"Escherichia coli, 10857",1.6 µg/mL
same,MIC,"Escherichia coli, 10896",1.6 µg/mL
same,MIC,"Escherichia coli, 10909",0.8 µg/mL
same,MIC,"Escherichia coli, 8294",1.6 µg/mL
same,MIC,"[4]; 18 hours, read-out: M.I.C.",1.6 µg/mL
same,MIC,[5]; read-out: M.I.C.,1.6 µg/mL
same,MIC,"Proteus mirabilis, 3855; read-out: M.I.C.",1.6 µg/mL
same,MIC,"Proteus rettgeri, 8479; Providencia rettgeri, 18 hours, read-out: M.I.C.",0.1 µg/mL
same,MIC,"Proteus vulgaris, 9416; 18 hours, read-out: M.I.C.",0.8 µg/mL
same,MIC,"[6]; 18 hours, read-out: M.I.C.",> 100 µg/mL
same,MIC,[7]; read-out: M.I.C.,6.3 µg/mL
same,MIC,"Salmonella typhosa, 1195",0.8 µg/mL
same,MIC,[8]; read-out: M.I.C.,0.8 µg/mL
same,MIC,"Shigella sonnei, 8449",1.6 µg/mL
same,MIC,"[9]; Staphylococcus aureus, 10165, K-10 agar, 10^4 CFU, 37°C, 18 hours, read-out: M.I.C.",25 µg/mL
same,MIC,"[10]; Staphylococcus aureus, 1276, K-10 agar, 10^4 CFU, 37°C, 18 hours, read-out: M.I.C.",25 µg/mL
same,MIC,"[12]; Staphylococcus aureus, 2400, K-10 agar, 10^4 CFU, 37°C, 18 hours, read-out: M.I.C.",12.5 µg/mL
same,MIC,"[13]; Enterococcus faecalis, Streptococcus faecalis, 9011, K-10 agar, 10^4 CFU, 37°C, 18 hours, read-out: M.I.C.",> 100 µg/mL
same,MIC,[15],1.6 µg/mL
same,MIC,"Micrococcus luteus, 2495",3.1 µg/mL
same,MIC,[14]; read-out: M.I.C.,25 µg/mL
